Test results from patent US5707821A, “Identification of phospholipase A2 inhibitors in Aβ peptide-mediated neurodegenerative disease” (priority 1995, dated 1998).

What was measured:
Type in all cases: cell-based
human cortical neurons [1] = test: Aβ neurotoxicity / survival of human cortical neurons (alamarBlue), compound added at time of Aβ1-40
Method: (§1) Cultures of human cortical or hippocampal neurons were prepared using a modification of the procedure described in P. Seubert et al. (1992), Nature 359:325-327. Cortical or hippocampal tissue was dissociated by incubation in a trypsin/EDTA solution (0.05% trypsin +0.53 mM EDTA in HBSS; Gibco) for 20 minutes at 37° C. The trypsin was then inactivated by resuspending the cells in serum-containing medium (MEM/FBS): Modified Eagle's Medium (MEM) containing 1% glucose, 1 mM sodium pyruvate, 1 mM glutamine, and supplemented with 10% fetal bovine serum (Gibco). Cells were then pelleted by centrifugation and resuspended in a chemically-defined medium (MEM/B27): MEM containing B27 supplement (Gibco) in place of FBS. Polyethyleneimine (PEI)-coated 6.4-mm (96-well) dishes were rinsed once with MEM/FBS, and then seeded at 0.75-1.25×10^5 cells per well in 0.1 ml MEM/B27. Cultures were maintained in a H2 O-saturated incubator with an atmosphere of 95% air/5% CO2 at 37° C. The culture medium was exchanged twice weekly.
Amyloid-β (Aβ) stock solutions were prepared as 1 mM stocks in sterile ddH2 O immediately prior to addition to cultures. Rat cortical neurons were exposed to Aβ by removing the culture medium and replacing it with DMEM/N2 or DMEM/B27 containing Aβ1-40. Human cortical neurons were exposed to Aβ by removing the culture medium and replacing it with MEM, MEM/N2, or MEM/B27 containing Aβ1-40. Cultures were maintained for 2-4 days before neuronal survival was quantified using alamarBlue™.
(§2) The alamarBlue™ assay incorporated a proprietary fluorometric/colorimetric metabolic indicator (Alamar Biosciences, Inc.). Viable cells convert alamarBlue™ from an oxidized (non-fluorescent, blue) form to a reduced (fluorescent, red) form. Assays were performed by replacing the culture media with a 10% alamarBlue™ solution in DMEM (rat cortical cultures) or MEM (human cortical cultures). Reduction of alamarBlue™ was determined spectrofluorometrically using a Millipore Cytofluor 2350 Scanner (excitation, […]; emission, 590 nm) and CytoCalc™ software (Millipore Corporation).
The effect of the two benzenesulfonamide inhibitors of PLA2 in Example 2 were examined to determine the dose-dependence of their effect on neuronal survival in human cortical neuron cultures exposed to 0 μM, 25μM, or 50 μM of Aβ1-40 and varying doses of the benzenesulfonamide.
(§3) Human cortical neurons were treated with 50 μM Aβ1-40 and various inhibitors of PLA2 or PLC. Compounds were added at the time of Aβ1-40 treatment at concentrations 390 nM to 100 μM. Compounds were also added to neuronal cultures in the absence of Aβ1-40. Neuronal survival was determined after 3 days of treatment by alamarBlue®. IC50 is the dose of compound that inhibited Aβ-mediated neurotoxicity by 50%. […] Data represents the mean ± SD (n=3). ND, not detected at the concentration range used.

[2] = test system: TNF-α release by cultured human cortical microglia; test: TNF-α release (ELISA) from Aβ1-40-stimulated human microglia
Method: Cultures of human cortical or hippocampal astrocytes and microglia were prepared using a modification of the procedure described for cortical neurons. Cortical tissue from fetuses of 16 to 20 weeks of gestation was washed 3 times in Ca^2+ /Mg^2+ free Hanks balanced salt solution (CMF HBSS) and then dissociated by repeated pipetting. The solution was brought to a final volume of 80 ml CMF HBSS for approximately 10 ml of tissue. DNase (Sigma) was added to a final concentration of 0.05 mg/ml. 20 ml of the solution was passed through one 100 μm nylon cell strained (Falcon). The cells were then centrifuged for 5 minutes at 200×G in an IEC Clinical Centrifuge and resuspended in a trypsin/EDTA solution (0.05% trypsin+0.53 mM EDTA in HBSS; Gibco) and incubated for 20 minutes at 37°C. (10 ml of trypsin was added per 2-3 ml of tissue). The trypsin was then inactivated by adding (MEM/FBS): Modified Eagle's Medium (MEM) containing 1% glucose, 1 mM sodium pyruvate, 1 mM glutamine, and supplemented with 10% fetal bovine serum (JRH). After adding a final concentration of 0.05 mg/ml DNase the cells were resuspended and then pelleted by centrifugation and resuspended in MEM/FBS. 1.6×10^8 cells were seeded in a T-150 tissue culture flask coated with polyethyleneimine (PEI). (10% PEI (Sigma) was diluted 1:10 in H2 O, filtered through a […] unit and then diluted into 150 mM sodium borate pH 8.5 at 1:100. The flasks were coated overnight at room temperature, washed two times in PBS and coated with 20 ml/flask of MEM/FBS at 37° C. for at least one hour prior to plating cells.) Cultures were maintained in a H2 O-saturated incubator with an atmosphere of 95% air/5% CO2 at 37° C. The culture medium was changed one and four days after plating and the cultures were then left undisturbed for at least one week. After approximately two weeks in vitro, the flasks were gently shaken and floating microglia were collected and centrifuged for 5 minutes at 200×G in an IEC Clinical Centrifuge. The microglia were reseeded in 96 well tissue culture plates at a density of 5,000-40,000 cells/well in 125 μl in MEM/FBS. Astrocyte cultures were prepared by multiple passaging of the established mixed brain cell cultures. Each T-150 was incubated for 3-4 minutes at 37°C. with a trypsin/EDTA solution (see above). The trypsin was then inactivated by adding MEM/FBS. The cells were triturated and then pelleted by centrifugation and resuspended in MEM/FBS. The cells from one T-150 were seeded at a 1:30 to 1:5 dilution in T-150's not coated. Just prior to confluency the cells were repassaged by trypsinization as described above. This process was repeated until the cultures were >98% pure astrocytes.
Cultured microglial cells were treated with 50 μM of Aβ1-40 or vehicle only (Control). The levels of IL-1β, IL-6, and TNF-α released into the culture medium were determined by ELISA assay (R&D Systems) according to manufacturer's instructions.
The effect of two benzenesulfonamide inhibitors of PLA2 (European Patent Application 468 054) were examined on the activation of microglial cells by Aβ1-40 as in Example 1.
The effects of the benzenesulfonamide PLA2 inhibitor AN20606 and the selective cytosolic PLA2 inhibitor arachidonyl trifluoromethyl ketone (AN20579) were examined in cultured human cortical microglia for their selectivity for inhibiting microglia activation mediated by amyloid-βpeptide and lipopolysaccharides (LPS). LPS are a major constituent of the cell wall of gama-negative bacteria and are extensively used for generating inflammatory responses in cultured cells and in vivo.

human cortical neurons [3] = test: Compound toxicity to human cortical neurons in absence of Aβ1-40 (alamarBlue, 3 days); details: human, 4320 min
Method: as §1, §2, §3

With `CN(C(=O)/C=C/c1ccc(S(C)(=O)=O)cc1)c1ccc(S(=O)(=O)NC2CCCCCC2)cc1` [AN20606, N-cycloheptyl-4-[N-methyl-N-[(E)-3-(4-methylsulfonylphenyl)-2-propenoyl]amino]benzenesulfonamide] the “neuronal survival in the presence of pathogenic Aβ peptide (in words)” value (human cortical neurons [1]; 0, 25 or 50 μM Aβ1-40, varying doses, FIG. 3, FIG. 4) was “dose-dependent increase in neuronal survival”, the “Max Inh” value (human cortical neurons [1]; 50 μM Aβ1-40, compound 390 nM to 100 μM added at time of Aβ, 3 days, n=3) was 80% and the IC50 (human cortical neurons [1]; Homo sapiens, Cortical neurone, 72 h, 50 μM Aβ1-40, compound 390 nM to 100 μM added at time of Aβ, 3 days, n=3, ND = not detected at the concentration range used, read-out: IC50 (dose that inhibited Aβ-mediated neurotoxicity by 50%)) was 5 µM. The “amount of TNF-α released into the medium (in words)” value ([2]; 50 μM Aβ1-40, 1 day, compound 0, 5, 10, 20 μM, FIG. 2) was “marked and dose-dependent decrease”, the “TNF Released” value ([2]; 50 μM Aβ1-40, inhibitor 20 μM where present) was 3.7 ± 1.4 pg/mL and the “Aβ1-40-mediated TNFα release, selectivity versus LPS (in words)” value ([2]; Aβ1-40 versus LPS stimulation) was “selectively inhibited”. For the same compound, the activity at 20 µM ([2]; Homo sapiens, Microglia, 50 μM Aβ1-40 + 20 μM inhibitor, read-out: TNF Released, percent in parentheses (relative to Aβ1-40 alone)) was 4% and the “TD10 (concentration giving 10% loss of neuronal survival)” value (human cortical neurons [3]) was 98 µM.
